Assay: Inhibition of Bacillus stearothermophilus alpha-glucosidase type 4
Set-up: species or system Geobacillus stearothermophilus

Row | Compound | IC50 [µM]
1 | O=C1C[C@H](c2ccc(O)cc2)Oc2cc(O)cc(O[C@@H]3O[C@H](CO)[C@@H](O)[C@H](O)[C@H]3O)c21 | 39.8
2 | O=C(CCc1ccc(O)cc1)c1c(O)cc(O)cc1O[C@@H]1O[C@H](CO)[C@@H](O)[C@H](O)[C@H]1O [PHLORIZIN] | 60.5
3 | COCC1=CCc2cc(OC)ccc2-c2cc(O[C@@H]3O[C@H](CO)[C@@H](O)[C@H](O)[C@H]3O)c(OC)cc21 [SUBAVENOSIDE E] | 19
4 | CC/C=C/CCO[C@@H]1O[C@H](CO)[C@@H](O)[C@H](O)[C@H]1O | > 150
5 | O=C1C[C@@H](c2ccc(O)cc2)Oc2cc(O)cc(O[C@@H]3O[C@H](CO)[C@@H](O)[C@H](O)[C@H]3O)c21 | 28.3
6 | CCCC(=O)c1c(O)cc(O)cc1O[C@@H]1O[C@H](CO)[C@@H](O)[C@H](O)[C@H]1O | > 150
7 | COCC1=CCc2cc(OC)ccc2-c2cc(O)c(OC)cc21 | 118
8 | C=CCc1ccc(O[C@@H]2O[C@H](CO[C@@H]3OC[C@](O)(CO)[C@H]3O)[C@@H](O)[C@H](O)[C@H]2O)cc1 | > 150
9 | COc1cc2c(cc1O[C@@H]1O[C@H](CO)[C@@H](O)[C@H](O)[C@H]1O)-c1ccccc1CC=C2CO [SUBAVENOSIDE D] | 50.7
10 | C[C@@H]1O[C@@H](OC[C@H]2O[C@@H](Oc3c(-c4ccc(O)cc4)oc4cc(O)cc(O)c4c3=O)[C@H](O)[C@@H](O)[C@@H]2O)[C@H](O)[C@H](O)[C@H]1O [NICOTIFLOROSIDE] | 110
11 | COc1cc2c(cc1O)-c1ccccc1CC=C2CO[C@@H]1O[C@H](CO)[C@@H](O)[C@H](O)[C@H]1O [SUBAVENOSIDE A] | 142
12 | COc1cc([C@@H]2Oc3c(OC)cc(CCCO)cc3[C@@H]2CO[C@@H]2OC[C@@H](O)[C@H](O)[C@H]2O)ccc1O | 77.1
13 | OCCc1ccc(O)c(O)c1 [HYDROXYTYROSOL] | 109
14 | C[C@H]1O[C@H](O[C@H]2[C@H](O)[C@@H](O)[C@@H](O[C@H]3[C@H](O)[C@@H](O)C(O)O[C@@H]3CO)O[C@@H]2CO)[C@H](O)[C@@H](O)[C@@H]1N[C@H]1C=C(CO)[C@@H](O)[C@H](O)[C@H]1O (some centres undefined) [ACARBOSE] | 0.034
